For 9 compounds, fold induction results are on record in US10004701B2, “Methods and compositions for treating infection” (UNIVERSITY OF ROCHESTER, priority 2012, dated 2018).

What all share (assay): AK assay 384-well format, Prestwick library screening
The subject of one experiment is E. faecium. The experiment is classed as cell-based, Enterococcus faecium. The note with it: Enterococcus faecium, 3 h, 50 μM final drug concentration.
Experiment [1] has as its system S. aureus strain USA300-0114. It counts as cell-based, Staphylococcus aureus. The note with it: Staphylococcus aureus, USA300, 3 h, 50 μM final drug concentration.
The test system of a further experiment is K. pneumoniae. The experiment is classed as cell-based, Klebsiella pneumoniae. The note with it: Klebsiella pneumoniae, 3 h, 50 μM final drug concentration.
For experiment [2], the system named is A. baumannii strain 98-37-09. It counts as cell-based, Acinetobacter baumannii. The note with it: Acinetobacter baumannii, 983709, 3 h, 50 μM final drug concentration.
For a further experiment, the system named is P. aeruginosa. It counts as cell-based, Pseudomonas aeruginosa. The note with it: Pseudomonas aeruginosa, 3 h, 50 μM final drug concentration.
The subject of another experiment is E. cloacae. The experiment is classed as cell-based, Enterobacter cloacae. The note with it: Enterobacter cloacae, 3 h, 50 μM final drug concentration.
The subject of another experiment is E. coli. It counts as cell-based, Escherichia coli. The note with it: Escherichia coli, 3 h, 50 μM final drug concentration.
The mark [3] stands for this setting: cutoff for positive-scoring molecules 3-fold increase, read-out: AK-based Prestwick Library Screening Results, E. faecium (fold increase in extracellular AK activity).
The mark [4] stands for this setting: cutoff for positive-scoring molecules 3-fold increase, read-out: AK-based Prestwick Library Screening Results, S. aureus (fold increase in extracellular AK activity).
[5] abbreviates: cutoff for positive-scoring molecules 3-fold increase, read-out: AK-based Prestwick Library Screening Results, K. pneumoniae (fold increase in extracellular AK activity).
Setting [6] is: cutoff for positive-scoring molecules 3-fold increase, read-out: AK-based Prestwick Library Screening Results, A. baumannii (fold increase in extracellular AK activity).
Setting [7] is: cutoff for positive-scoring molecules 3-fold increase, read-out: AK-based Prestwick Library Screening Results, P. aeruginosa (fold increase in extracellular AK activity).
Where [8] appears, read: cutoff for positive-scoring molecules 3-fold increase, read-out: AK-based Prestwick Library Screening Results, E. cloacae (fold increase in extracellular AK activity).
Where [9] appears, read: cutoff for positive-scoring molecules 3-fold increase, read-out: AK-based Prestwick Library Screening Results, E. coli (fold increase in extracellular AK activity).

Structures are written as SMILES. Structures can show the parent of a compound that is named as a salt. Where two headings read alike, the source gives them in different places.

As to `NC[C@H]1CC[C@H](C(=O)O)CC1` [Tranexamic acid], the fold induction at 50 µM was 1.1 in the experiment on E. faecium (384-well format, cutoff for positive-scoring molecules 3-fold increase, read-out: AK-based Prestwick Library Screening Results, E. faecium (increase in extracellular AK activity)); 0.7 in experiment [1] (384-well format, cutoff for positive-scoring molecules 3-fold increase, read-out: AK-based Prestwick Library Screening Results, S. aureus (increase in extracellular AK activity)); 0.7 in the experiment with K. pneumoniae (384-well format, cutoff for positive-scoring molecules 3-fold increase, read-out: AK-based Prestwick Library Screening Results, K. pneumoniae (increase in extracellular AK activity)); 0.8 in experiment [2] (384-well format, cutoff for positive-scoring molecules 3-fold increase, read-out: AK-based Prestwick Library Screening Results, A. baumannii (increase in extracellular AK activity)); 0.9 with P. aeruginosa (384-well format, cutoff for positive-scoring molecules 3-fold increase, read-out: AK-based Prestwick Library Screening Results, P. aeruginosa (increase in extracellular AK activity)); 0.9 in the experiment with E. cloacae (384-well format, cutoff for positive-scoring molecules 3-fold increase, read-out: AK-based Prestwick Library Screening Results, E. cloacae (increase in extracellular AK activity)). Moreover, the fold induction at 50 µM in the experiment on E. coli (384-well format, cutoff for positive-scoring molecules 3-fold increase, read-out: AK-based Prestwick Library Screening Results, E. coli (increase in extracellular AK activity)) worked out at 0.8.

Turning to `CCc1c(C)[nH]c2c1C(=O)C(CN1CCOCC1)CC2` (stereo not drawn) [Molindone hydrochloride], the fold induction at 50 µM with E. faecium (planktonic E. faecium, positive cutoff 3-fold increase, read-out: AK-based Prestwick library screening result, E. faecium (fold increase in extracellular AK activity)) was 1; in experiment [1] (planktonic S. aureus, positive cutoff 3-fold increase, read-out: AK-based Prestwick library screening result, S. aureus (fold increase in extracellular AK activity)), 1.1; in the experiment on K. pneumoniae (planktonic K. pneumoniae, positive cutoff 3-fold increase, read-out: AK-based Prestwick library screening result, K. pneumoniae (fold increase in extracellular AK activity)) it was 1; in experiment [2] (planktonic A. baumannii, positive cutoff 3-fold increase, read-out: AK-based Prestwick library screening result, A. baumannii (fold increase in extracellular AK activity)), 1.1; with P. aeruginosa (planktonic P. aeruginosa, positive cutoff 3-fold increase, read-out: AK-based Prestwick library screening result, P. aeruginosa (fold increase in extracellular AK activity)), 0.9; with E. cloacae (planktonic E. cloacae, positive cutoff 3-fold increase, read-out: AK-based Prestwick library screening result, E. cloacae (fold increase in extracellular AK activity)), 1.7. In addition, the fold induction at 50 µM in the experiment with E. coli (planktonic E. coli, positive cutoff 3-fold increase, read-out: AK-based Prestwick library screening result, E. coli (fold increase in extracellular AK activity)) was 1.1.

In the case of `O=C(c1ccccc1)c1ccc2n1CCC2C(=O)O` (stereo not drawn) [Ketorolac tromethamine], the fold induction at 50 µM is 1 in the experiment with E. faecium (setting [3]); 1.1 in experiment [1] (setting [4]); 1 with K. pneumoniae (setting [5]); 1 in experiment [2] (setting [6]); 1 with P. aeruginosa (setting [7]); 1.4 with E. cloacae (setting [8]). Moreover, the fold induction at 50 µM in the experiment on E. coli (setting [9]) was determined as 1.3.

In the case of `O=C(O)COCCN1CCN(C(c2ccccc2)c2ccc(Cl)cc2)CC1` (stereo not drawn) [Cetirizine dihydrochloride], the fold induction at 50 µM with E. faecium (planktonic E. faecium, cutoff for positive-scoring molecules 3-fold increase, read-out: AK-based Prestwick Library Screening Results, E. faecium (increase in extracellular AK activity)) amounted to 0.9; in experiment [1] (planktonic S. aureus, cutoff for positive-scoring molecules 3-fold increase, read-out: AK-based Prestwick Library Screening Results, S. aureus (increase in extracellular AK activity)), 0.7; with K. pneumoniae (planktonic K. pneumoniae, cutoff for positive-scoring molecules 3-fold increase, read-out: AK-based Prestwick Library Screening Results, K. pneumoniae (increase in extracellular AK activity)), 0.7; in experiment [2] (planktonic A. baumannii, cutoff for positive-scoring molecules 3-fold increase, read-out: AK-based Prestwick Library Screening Results, A. baumannii (increase in extracellular AK activity)) it was 1.1; in the experiment on P. aeruginosa (planktonic P. aeruginosa, cutoff for positive-scoring molecules 3-fold increase, read-out: AK-based Prestwick Library Screening Results, P. aeruginosa (increase in extracellular AK activity)), 0.9; with E. cloacae (planktonic E. cloacae, cutoff for positive-scoring molecules 3-fold increase, read-out: AK-based Prestwick Library Screening Results, E. cloacae (increase in extracellular AK activity)), 0.9. Moreover, the fold induction at 50 µM in the experiment on E. coli (planktonic E. coli, cutoff for positive-scoring molecules 3-fold increase, read-out: AK-based Prestwick Library Screening Results, E. coli (increase in extracellular AK activity)) stood at 0.9.

Consider `CC[C@H]1OC(=O)[C@H](C)[C@@H](O[C@H]2C[C@@](C)(OC)[C@@H](O)[C@H](C)O2)[C@H](C)[C@@H](O[C@@H]2O[C@H](C)C[C@H](N(C)C)[C@H]2O)[C@](C)(O)C[C@@H](C)/C(=N\OCOCCOC)[C@H](C)[C@@H](O)[C@]1(C)O` [Roxithromycin], for which the fold induction at 50 µM in the experiment on E. faecium (setting [3]) worked out at 1.4; in experiment [1] (setting [4]), 2.8; in the experiment with K. pneumoniae (setting [5]), 1.1; in experiment [2] (setting [6]), 1; with P. aeruginosa (setting [7]), 0.9; with E. cloacae (setting [8]) it was 1.5. Also, the fold induction at 50 µM in the experiment with E. coli (setting [9]) was 0.9.

Turning to `Cc1cc2cc3c(C)cc(=O)oc3c(C)c2o1` [Trioxsalen], the fold induction at 50 µM worked out at 0.9 in the experiment on E. faecium (setting [3]); 0.9 in experiment [1] (setting [4]); 1 with K. pneumoniae (setting [5]); 1.2 in experiment [2] (setting [6]); 1 in the experiment with P. aeruginosa (setting [7]); 1.3 with E. cloacae (setting [8]). For the same compound, in the experiment with E. coli (setting [9]), the fold induction at 50 µM is 1.2.

For the compound `C[C@H]1[C@H]2CC[C@H]3[C@@H]4CC=C5C[C@@H](N(C)C)CC[C@]5(C)[C@H]4CC[C@]23CN1C` [Conessine], the fold induction at 50 µM in the experiment with E. faecium (planktonic, cutoff for positive 3-fold increase, read-out: AK-based Prestwick Library Screening Results, E. faecium (fold increase in extracellular AK activity)) stood at 1.1; in experiment [1] (planktonic, cutoff for positive 3-fold increase, read-out: AK-based Prestwick Library Screening Results, S. aureus (fold increase in extracellular AK activity)) it was 1.2; in the experiment with K. pneumoniae (planktonic, cutoff for positive 3-fold increase, read-out: AK-based Prestwick Library Screening Results, K. pneumoniae (fold increase in extracellular AK activity)), 1.2; in experiment [2] (planktonic, cutoff for positive 3-fold increase, read-out: AK-based Prestwick Library Screening Results, A. baumannii (fold increase in extracellular AK activity)), 1.4; in the experiment with P. aeruginosa (planktonic, cutoff for positive 3-fold increase, read-out: AK-based Prestwick Library Screening Results, P. aeruginosa (fold increase in extracellular AK activity)) it was 1.2; in the experiment on E. cloacae (planktonic, cutoff for positive 3-fold increase, read-out: AK-based Prestwick Library Screening Results, E. cloacae (fold increase in extracellular AK activity)) it was 1.6. Moreover, the fold induction at 50 µM in the experiment with E. coli (planktonic, cutoff for positive 3-fold increase, read-out: AK-based Prestwick Library Screening Results, E. coli (fold increase in extracellular AK activity)) amounted to 1.5.

Turning to `Cc1cc2c(C(C)C)c(O)c(O)c(C=O)c2c(O)c1-c1c(C)cc2c(C(C)C)c(O)c(O)c(C=O)c2c1O` [Gossypol], the fold induction at 50 µM in the experiment with E. faecium (planktonic, […], read-out: AK-based Prestwick Library Screening Results, E. faecium (fold increase in extracellular AK activity)) was found to be 1.3; in experiment [1] (planktonic, […], read-out: AK-based Prestwick Library Screening Results, S. aureus (fold increase in extracellular AK activity)), 0.2; in the experiment with K. pneumoniae (planktonic, […], read-out: AK-based Prestwick Library Screening Results, K. pneumoniae (fold increase in extracellular AK activity)), 0.3; in experiment [2] (planktonic, […], read-out: AK-based Prestwick Library Screening Results, A. baumannii (fold increase in extracellular AK activity)), 0.4; in the experiment on P. aeruginosa (planktonic, […], read-out: AK-based Prestwick Library Screening Results, P. aeruginosa (fold increase in extracellular AK activity)) it was 0.5; in the experiment on E. cloacae (planktonic, […], read-out: AK-based Prestwick Library Screening Results, E. cloacae (fold increase in extracellular AK activity)) it was 1.5. Also, the fold induction at 50 µM in the experiment on E. coli (planktonic, […], read-out: AK-based Prestwick Library Screening Results, E. coli (fold increase in extracellular AK activity)) was found to be 0.6.

In the case of `CCN(CC)CCNC(=O)c1cc(Br)c(N)cc1OC` [Bromopride], the fold induction at 50 µM with E. faecium (setting [3]) was 0.9; in experiment [1] (setting [4]), 1.3; in the experiment with K. pneumoniae (setting [5]), 1; in experiment [2] (setting [6]), 1.3; in the experiment with P. aeruginosa (setting [7]), 1.1; with E. cloacae (setting [8]), 1.3. In addition, the fold induction at 50 µM in the experiment with E. coli (setting [9]) amounted to 1.3.
